Reference: US8471005B2 (Cephalon, Inc., priority 2008, dated 2013)

Experiments:
ALK = molecular target: T1, ALK (Homo sapiens, UniProt Q9UM73); experiment: ALK Kinase Assay (ELISA/TRF, PLC-γ substrate); assay type: biochemical; conditions: ALK Kinase Inhibition; read-out: ALK Potency
T1 construct: host or cells: baculovirus expression system
Outline: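 Wells were coated with 10 μg/mL phospholipase C-γ substrate in TBS, and the reaction was started by adding 30 ng/ml ALK enzyme and run at 37° C for 15 minutes. Phosphorylated product was detected with Eu-N1-labeled PT66 antibody, and IC50 values came from sigmoidal variable-slope fits of percent inhibition against log concentration.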

JAK2 = molecular target: T2, JAK2 (Homo sapiens, UniProt O60674); experiment: Recombinant Human JAK2 Kinase Assay (TRF); assay type: biochemical; conditions: JAK2 Kinase Inhibition; read-out: JAK2 Potency
T2 construct: host or cells: baculovirus expression system
T2 sequence (O60674 whole entry): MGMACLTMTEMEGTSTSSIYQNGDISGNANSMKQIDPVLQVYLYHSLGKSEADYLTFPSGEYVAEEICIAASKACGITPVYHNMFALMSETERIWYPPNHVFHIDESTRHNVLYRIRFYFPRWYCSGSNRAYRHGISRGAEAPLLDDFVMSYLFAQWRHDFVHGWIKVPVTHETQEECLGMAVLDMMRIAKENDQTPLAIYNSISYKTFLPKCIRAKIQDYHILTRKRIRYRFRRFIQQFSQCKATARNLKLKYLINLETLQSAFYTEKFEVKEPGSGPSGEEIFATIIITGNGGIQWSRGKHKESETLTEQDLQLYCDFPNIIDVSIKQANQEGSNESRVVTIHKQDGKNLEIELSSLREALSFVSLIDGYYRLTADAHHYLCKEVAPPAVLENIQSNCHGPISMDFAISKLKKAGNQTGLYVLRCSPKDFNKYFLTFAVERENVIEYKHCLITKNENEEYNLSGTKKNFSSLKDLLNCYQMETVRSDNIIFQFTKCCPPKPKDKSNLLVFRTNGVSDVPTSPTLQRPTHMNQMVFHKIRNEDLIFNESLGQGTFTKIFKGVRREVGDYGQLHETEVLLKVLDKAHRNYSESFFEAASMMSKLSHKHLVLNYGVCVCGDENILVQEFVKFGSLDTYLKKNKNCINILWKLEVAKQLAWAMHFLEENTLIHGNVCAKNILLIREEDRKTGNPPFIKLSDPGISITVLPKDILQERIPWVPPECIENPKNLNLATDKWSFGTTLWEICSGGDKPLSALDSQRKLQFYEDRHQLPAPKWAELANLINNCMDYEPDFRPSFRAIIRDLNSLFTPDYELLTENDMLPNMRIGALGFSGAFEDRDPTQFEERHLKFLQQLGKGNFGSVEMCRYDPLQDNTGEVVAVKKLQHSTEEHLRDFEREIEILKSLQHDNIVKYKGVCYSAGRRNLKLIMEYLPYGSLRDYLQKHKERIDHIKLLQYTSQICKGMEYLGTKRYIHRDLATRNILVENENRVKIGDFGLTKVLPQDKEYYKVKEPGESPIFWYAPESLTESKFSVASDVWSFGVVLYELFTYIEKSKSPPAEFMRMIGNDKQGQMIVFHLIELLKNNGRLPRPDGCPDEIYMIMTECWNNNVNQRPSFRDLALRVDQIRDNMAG
Outline: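 Europium-labelled PY100 antibody reported tyrosine phosphorylation of a Neutravidin-captured biotinyl 15-mer peptide by JAK2 (baculovirus-expressed, 15 ng/ml). Conditions: 20 mM HEPES pH 7.2, 0.2 μM ATP, 1 mM MnCl2, 0.1% BSA, DMSO 2.5% final, 20 min at room temperature.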

T1 sequence (Q9UM73 19-1620): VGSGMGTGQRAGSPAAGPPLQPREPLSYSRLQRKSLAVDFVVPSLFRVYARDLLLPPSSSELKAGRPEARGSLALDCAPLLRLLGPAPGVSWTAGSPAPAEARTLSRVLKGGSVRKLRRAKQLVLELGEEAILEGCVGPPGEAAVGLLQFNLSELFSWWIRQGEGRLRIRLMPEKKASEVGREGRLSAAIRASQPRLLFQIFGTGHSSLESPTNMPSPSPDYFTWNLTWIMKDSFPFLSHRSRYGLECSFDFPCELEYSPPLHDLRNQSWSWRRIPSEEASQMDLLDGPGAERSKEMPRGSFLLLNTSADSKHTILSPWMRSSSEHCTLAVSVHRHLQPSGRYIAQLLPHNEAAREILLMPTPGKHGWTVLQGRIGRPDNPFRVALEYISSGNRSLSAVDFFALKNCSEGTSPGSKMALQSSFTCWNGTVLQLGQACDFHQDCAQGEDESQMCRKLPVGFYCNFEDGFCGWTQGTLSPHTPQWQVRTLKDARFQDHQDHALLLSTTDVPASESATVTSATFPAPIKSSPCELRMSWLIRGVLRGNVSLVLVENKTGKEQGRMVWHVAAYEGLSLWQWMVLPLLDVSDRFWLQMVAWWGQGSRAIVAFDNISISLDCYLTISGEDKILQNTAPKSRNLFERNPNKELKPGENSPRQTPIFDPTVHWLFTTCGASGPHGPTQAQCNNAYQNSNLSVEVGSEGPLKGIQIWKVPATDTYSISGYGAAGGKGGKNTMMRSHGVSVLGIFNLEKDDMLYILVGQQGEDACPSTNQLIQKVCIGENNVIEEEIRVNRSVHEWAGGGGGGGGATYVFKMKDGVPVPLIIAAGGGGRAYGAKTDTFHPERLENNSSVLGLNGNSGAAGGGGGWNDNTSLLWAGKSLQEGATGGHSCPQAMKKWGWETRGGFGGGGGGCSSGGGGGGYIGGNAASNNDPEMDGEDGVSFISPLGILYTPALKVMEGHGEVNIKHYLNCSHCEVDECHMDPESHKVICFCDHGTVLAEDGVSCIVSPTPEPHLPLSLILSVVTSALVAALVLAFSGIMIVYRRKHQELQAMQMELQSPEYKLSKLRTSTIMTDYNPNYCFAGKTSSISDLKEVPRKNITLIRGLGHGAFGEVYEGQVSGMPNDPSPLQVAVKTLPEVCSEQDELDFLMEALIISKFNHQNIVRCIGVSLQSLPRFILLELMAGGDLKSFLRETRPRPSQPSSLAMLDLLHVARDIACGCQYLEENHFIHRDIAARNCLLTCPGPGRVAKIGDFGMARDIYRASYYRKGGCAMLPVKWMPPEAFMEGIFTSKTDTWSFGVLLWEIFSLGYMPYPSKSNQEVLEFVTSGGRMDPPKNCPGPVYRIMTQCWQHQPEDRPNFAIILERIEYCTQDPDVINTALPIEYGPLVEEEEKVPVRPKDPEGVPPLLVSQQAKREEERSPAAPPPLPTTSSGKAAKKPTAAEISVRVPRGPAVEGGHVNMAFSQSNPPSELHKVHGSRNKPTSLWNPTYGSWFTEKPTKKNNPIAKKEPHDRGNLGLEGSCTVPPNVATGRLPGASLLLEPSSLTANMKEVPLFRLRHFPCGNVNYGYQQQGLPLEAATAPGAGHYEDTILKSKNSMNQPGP

CN1CCN(c2ccc(Nc3ncc4ccc(-c5cccc(NS(C)(=O)=O)c5)n4n3)cc2)CC1 [Example 379, N-(3-{2-[4-(4-Methyl-piperazin-1-yl)-phenylamino]-pyrrolo[2,1-f][1,2,4]triazin-7-yl}-phenyl)-methanesulfonamide]
IC50 (ALK): 100 to 1000 nM
IC50 (JAK2): < 100 nM

CS(=O)(=O)Nc1cccc(-c2ccc3cnc(Nc4ccc(N5CCN(CCO)CC5)cc4)nn23)c1 [Example 380, N-[3-(2-{4-[4-(2-Hydroxy-ethyl)-piperazin-1-yl]-phenylamino}-pyrrolo[2,1-f][1,2,4]triazin-7-yl)-phenyl]-methanesulfonamide]
IC50 (ALK): < 100 nM
IC50 (JAK2): < 100 nM

CC1(C)CCC(=O)Nc2cc(Nc3ncc4ccc(-c5cccc(NS(C)(=O)=O)c5)n4n3)ccc21 [Example 381, N-{3-[2-(5,5-Dimethyl-2-oxo-2,3,4,5-tetrahydro-1H-1-benzazepin-8-ylamino)-pyrrolo[2,1-f][1,2,4]triazin-7-yl]-phenyl}-methanesulfonamide]
IC50 (ALK): 100 to 1000 nM
IC50 (JAK2): < 100 nM

CS(=O)(=O)Nc1cccc(-c2ccc3cnc(Nc4ccc5c(c4)CCC(N4CCOCC4)CC5)nn23)c1 (stereo not drawn) [Example 382, N-{3-[2-(7-Morpholin-4-yl-6,7,8,9-tetrahydro-5H-benzocyclohepten-2-ylamino)-pyrrolo[2,1-f][1,2,4]triazin-7-yl]-phenyl}-methanesulfonamide]
IC50 (ALK): 100 to 1000 nM
IC50 (JAK2): < 100 nM

OC(c1ccccc1)c1ccc2cnc(Nc3ccc(N4CCOCC4)cc3)nn12 (stereo not drawn) [Example 383, [2-(4-Morpholin-4-yl-phenylamino)-pyrrolo[2,1-f][1,2,4]triazin-7-yl]-phenyl-methanol]
IC50 (ALK): 1000 to 10000 nM
IC50 (JAK2): < 100 nM

COc1ccc(-c2ccc3cnc(Nc4ccc5c(c4)CC(=O)N5C)nn23)cn1 [Example 384, 5-[7-(6-Methoxy-pyridin-3-yl)-pyrrolo[2,1-f][1,2,4]triazin-2-ylamino]-1-methyl-1,3-dihydro-indol-2-one]
IC50 (ALK): 1000 to 10000 nM
IC50 (JAK2): < 100 nM

CN(c1ncccc1Nc1ccc2cnc(Nc3ccc(N4CCOCC4)cc3)nn12)S(C)(=O)=O [Example 385, N-Methyl-N-{3-[2-(4-morpholin-4-yl-phenylamino)-pyrrolo[2,1-f][1,2,4]triazin-7-ylamino]-pyridin-2-yl}-methanesulfonamide]
IC50 (ALK): 1000 to 10000 nM
IC50 (JAK2): < 100 nM

CN(c1ccccc1-c1ccc2cnc(Nc3ccc(N4CCOCC4)cc3F)nn12)S(C)(=O)=O [Example 386, N-{2-[2-(2-Fluoro-4-morpholin-4-yl-phenylamino)-pyrrolo[2,1-f][1,2,4]triazin-7-yl]-phenyl}-N-methyl-methanesulfonamide]
IC50 (ALK): 100 to 1000 nM
IC50 (JAK2): < 100 nM

CN1C(=O)Cc2cc(Nc3ncc4ccc(Nc5cccnc5N(C)S(C)(=O)=O)n4n3)ccc21 [Example 387, N-Methyl-N-{3-[2-(1-methyl-2-oxo-2,3-dihydro-1H-indol-5-ylamino)-pyrrolo[2,1-f][1,2,4]triazin-7-ylamino]-pyridin-2-yl}-methanesulfonamide]
IC50 (ALK): 1000 to 10000 nM
IC50 (JAK2): < 100 nM

CN(c1ccccc1-c1ccc2cnc(Nc3ccc(F)c(N4CCOCC4)c3)nn12)S(C)(=O)=O [Example 388, N-{2-[2-(4-Fluoro-3-morpholin-4-yl-phenylamino)-pyrrolo[2,1-f][1,2,4]triazin-7-yl]-phenyl}-N-methyl-methanesulfonamide]
IC50 (ALK): 100 to 1000 nM
IC50 (JAK2): < 100 nM

COc1ccccc1-c1ccc2cnc(Nc3ccc(F)c(N4CCOCC4)c3)nn12 [Example 389, (4-Fluoro-3-morpholin-4-yl-phenyl)-[7-(2-methoxy-phenyl)-pyrrolo[2,1-f][1,2,4]triazin-2-yl]-amine]
IC50 (ALK): 100 to 1000 nM
IC50 (JAK2): < 100 nM

CS(=O)(=O)Nc1cccc(-c2ccc3cnc(Nc4ccc(F)c(N5CCOCC5)c4)nn23)c1 [Example 390, N-{3-[2-(4-Fluoro-3-morpholin-4-yl-phenylamino)-pyrrolo[2,1-f][1,2,4]triazin-7-yl]-phenyl}-methanesulfonamide]
IC50 (ALK): 100 to 1000 nM
IC50 (JAK2): < 100 nM

Fc1ccc(Nc2ncc3ccc(-c4cccnc4)n3n2)cc1N1CCOCC1 [Example 391, (4-Fluoro-3-morpholin-4-yl-phenyl)-(7-pyridin-3-yl-pyrrolo[2,1-f][1,2,4]triazin-2-yl)-amine]
IC50 (ALK): 1000 to 10000 nM
IC50 (JAK2): < 100 nM

COc1ccc(-c2ccc3cnc(Nc4ccc(F)c(N5CCOCC5)c4)nn23)cn1 [Example 392, (4-Fluoro-3-morpholin-4-yl-phenyl)-[7-(6-methoxy-pyridin-3-yl)-pyrrolo[2,1-f][1,2,4]triazin-2-yl]-amine]
IC50 (ALK): 1000 to 10000 nM
IC50 (JAK2): < 100 nM

COc1ccc(Nc2ncc3ccc(-c4ccccc4N(C)S(C)(=O)=O)n3n2)cc1N1CCOCC1 [Example 393, N-{2-[2-(4-Methoxy-3-morpholin-4-yl-phenylamino)-pyrrolo[2,1-f][1,2,4]triazin-7-yl]-phenyl}-N-methyl-methanesulfonamide]
IC50 (ALK): < 100 nM
IC50 (JAK2): < 100 nM

COc1ccccc1-c1ccc2cnc(Nc3ccc(OC)c(N4CCOCC4)c3)nn12 [Example 394, (4-Methoxy-3-morpholin-4-yl-phenyl)-[7-(2-methoxy-phenyl)-pyrrolo[2,1-f][1,2,4]triazin-2-yl]-amine]
IC50 (ALK): < 100 nM
IC50 (JAK2): < 100 nM

COc1ccc(Nc2ncc3ccc(-c4cccc(NS(C)(=O)=O)c4)n3n2)cc1N1CCOCC1 [Example 395, N-{3-[2-(4-Methoxy-3-morpholin-4-yl-phenylamino)-pyrrolo[2,1-f][1,2,4]triazin-7-yl]-phenyl}-methanesulfonamide]
IC50 (ALK): 100 to 1000 nM
IC50 (JAK2): < 100 nM

COc1ccc(Nc2ncc3ccc(-c4cccnc4)n3n2)cc1N1CCOCC1 [Example 396, (4-Methoxy-3-morpholin-4-yl-phenyl)-(7-pyridin-3-yl-pyrrolo[2,1-f][1,2,4]triazin-2-yl)-amine]
IC50 (ALK): 100 to 1000 nM
IC50 (JAK2): < 100 nM

COc1ccc(-c2ccc3cnc(Nc4ccc(OC)c(N5CCOCC5)c4)nn23)cn1 [Example 397, (4-Methoxy-3-morpholin-4-yl-phenyl)-[7-(6-methoxy-pyridin-3-yl)-pyrrolo[2,1-f][1,2,4]triazin-2-yl]-amine]
IC50 (ALK): 100 to 1000 nM
IC50 (JAK2): < 100 nM

CC(=O)c1ccccc1-c1ccc2cnc(Nc3ccc(N4CCOCC4)cc3)nn12 [Example 400, 1-{2-[2-(4-Morpholin-4-yl-phenylamino)-pyrrolo[2,1-f][1,2,4]triazin-7-yl]-phenyl}-ethanone]
IC50 (ALK): 1000 to 10000 nM
IC50 (JAK2): < 100 nM

CC(C)(C)C(=O)Nc1ccccc1-c1ccc2cnc(Nc3ccc(N4CCOCC4)cc3)nn12 [Example 401, 2,2-Dimethyl-N-{2-[2-(4-morpholin-4-yl-phenylamino)-pyrrolo[2,1-f][1,2,4]triazin-7-yl]-phenyl}-propionamide]
IC50 (ALK): > 10000 nM
IC50 (JAK2): < 100 nM

CC(=O)c1ccccc1-c1ccc2cnc(Nc3ccc(N4CCN(C)CC4)cc3)nn12 [Example 402, 1-(2-{2-[4-(4-Methyl-piperazin-1-yl)-phenylamino]-pyrrolo[2,1-f][1,2,4]triazin-7-yl}-phenyl)-ethanone]
IC50 (ALK): 100 to 1000 nM
IC50 (JAK2): < 100 nM

CN1CCN(c2ccc(Nc3ncc4ccc(-c5ccccc5NC(=O)C(C)(C)C)n4n3)cc2)CC1 [Example 403, 2,2-Dimethyl-N-(2-{2-[4-(4-methyl-piperazin-1-yl)-phenylamino]-pyrrolo[2,1-f][1,2,4]triazin-7-yl}-phenyl)-propionamide]
IC50 (ALK): > 10000 nM
IC50 (JAK2): 1000 to 10000 nM

CN1CCN(c2ccc(Nc3ncc4ccc(-c5ccccc5[S+](C)[O-])n4n3)cc2)CC1 (stereo not drawn) [Example 404, [7-(2-Methanesulfinyl-phenyl)-pyrrolo[2,1-f][1,2,4]triazin-2-yl]-[4-(4-methyl-piperazin-1-yl)-phenyl]-amine]
IC50 (ALK): 100 to 1000 nM
IC50 (JAK2): < 100 nM

C[S+]([O-])c1ccccc1-c1ccc2cnc(Nc3ccc(N4CCOCC4)cc3)nn12 (stereo not drawn) [Example 405, [7-(2-Methanesulfinyl-phenyl)-pyrrolo[2,1-f][1,2,4]triazin-2-yl]-(4-morpholin-4-yl-phenyl)-amine]
IC50 (ALK): 1000 to 10000 nM
IC50 (JAK2): < 100 nM

CN1CCN(c2ccc(Nc3ncc4ccc(-c5ccccc5S(C)(=O)=O)n4n3)cc2)CC1 [Example 406, [7-(2-Methanesulfonyl-phenyl)-pyrrolo[2,1-f][1,2,4]triazin-2-yl]-[4-(4-methyl-piperazin-1-yl)-phenyl]-amine]
IC50 (ALK): 1000 to 10000 nM
IC50 (JAK2): < 100 nM

CCN(CC)C(=O)c1ccccc1-c1ccc2cnc(Nc3ccc(N4CCN(C)CC4)cc3)nn12 [Example 407, N,N-Diethyl-2-{2-[4-(4-methyl-piperazin-1-yl)-phenylamino]-pyrrolo[2,1-f][1,2,4]triazin-7-yl}-benzamide]
IC50 (ALK): 100 to 1000 nM
IC50 (JAK2): < 100 nM

CCN(CC)C(=O)c1ccccc1-c1ccc2cnc(Nc3ccc(N4CCOCC4)cc3)nn12 [Example 408, N,N-Diethyl-2-[2-(4-morpholin-4-yl-phenylamino)-pyrrolo[2,1-f][1,2,4]triazin-7-yl]-benzamide]
IC50 (ALK): 100 to 1000 nM
IC50 (JAK2): < 100 nM

CN1CCN(c2ccc(Nc3ncc4ccc(-c5ccccc5C(N)=O)n4n3)cc2)CC1 [Example 409, 2-{2-[4-(4-Methyl-piperazin-1-yl)-phenylamino]-pyrrolo[2,1-f][1,2,4]triazin-7-yl}-benzamide]
IC50 (ALK): 100 to 1000 nM
IC50 (JAK2): < 100 nM

CN(c1ccccc1-c1ccc2cnc(Nc3cccc(N4CCOCC4)c3)nn12)S(C)(=O)=O [Example 410, N-Methyl-N-{2-[2-(3-morpholin-4-yl-phenylamino)-pyrrolo[2,1-f][1,2,4]triazin-7-yl]-phenyl}-methanesulfonamide]
IC50 (ALK): 100 to 1000 nM
IC50 (JAK2): < 100 nM
